Reference: PMC10568017, “A quest for the stereo-electronic requirements for selective agonism for the neurotrophin receptors TrkA and TrkB in 17-spirocyclic-dehydroepiandrosterone derivatives” (Frontiers in Molecular Neuroscience, 2023)

Experiments:
[1] = murine models; ref Bennett et al., 2016; Tsika et al., 2021; cited from earlier work
[2] = tested on: NIH-3T3 TrkB-expressing cell line; assay: CellTox Green cytotoxicity assay in NIH-3T3 cells stable transfected with TrkB under serum deprivation; type: cell-based; conditions: compound 1 μM, 24 h, after 24 h serum starvation; BDNF 500 ng/mL as control
Procedure: (§1) We tested compounds on three cellular systems, primary cortical astrocytes from 2-day-old mice (as a natively TrkB-expressing neuronal population), and NIH-3T3 fibroblasts stable transfected with TrkB and NIH-3T3 naïve cells. Cells were grown with high-glucose DMEM medium supplemented with 10% fetal bovine serum (FBS), 100 μg/mL streptomycin, and 100 units/mL penicillin at 37°C in a humidified 5% CO2 atmosphere. Phosphorylation results presented here are in primary astrocytes, and cell toxicity assay results are in NIH-3T3 stable transfected cells with TrkB.
NIH-3T3 stable transfected cells with TrkB were plated in 96-well plates at a density of 10,000 cells/well, before carrying out serum starvation for 24 h. Cells were then treated for 24 h with either BDNF at 500 ng/mL (control) or the compounds at 1 μM.
For the cell toxicity assay, we used CellTox™ Green Dye (2,000 × , Promega) for the visualization of dead cells and Hoechst 33,342 solution (10,000 × ) for total cells. A ZEISS Axio Vert.A1 microscope was used for image capture, and the ImageJ software (https://imagej.nih.gov/ij/) was used for analysis. The number of CellTox positive cells was normalized against the total number of cells observed in each image.
The NIH-3T3 TrkB cell line, which is stable and transfected to specifically express the TrkB receptor, was used for the screening of the new compounds for their ability to protect cells from serum deprivation-induced apoptosis through the activation of the TrkB receptor. Cell death was induced by serum deprivation for 24 h and then BDNF (500 ng/mL), the native neurotrophin ligand of the TrkB receptor, or compounds ENT-A007, ENT-A009, ENTA025, ENT-A026, ENT-A033, ENT-A034, ENT-A035, ENT-A036, ENT-A037, ENT-A046, ENT-A047, ENT-A055, and ENT-A056 (1 μM) were added to the media for 24 h.

[3] = molecular target: T1, TrkB (Mus musculus, UniProt P15209); assay: TrkB phosphorylation assay in primary astrocytes (Western blot); type: cell-based; conditions: compound 1 μM, 20 min, after 6 h serum starvation, BDNF 500 ng/mL as control
T1 construct: primary cortical astrocytes from 2-day-old mice (as a natively TrkB-expressing neuronal population); endogenous in cells; host or cells: primary cortical astrocytes from C57B/6 mouse pups (P2)
T1 sequence (P15209 32-821): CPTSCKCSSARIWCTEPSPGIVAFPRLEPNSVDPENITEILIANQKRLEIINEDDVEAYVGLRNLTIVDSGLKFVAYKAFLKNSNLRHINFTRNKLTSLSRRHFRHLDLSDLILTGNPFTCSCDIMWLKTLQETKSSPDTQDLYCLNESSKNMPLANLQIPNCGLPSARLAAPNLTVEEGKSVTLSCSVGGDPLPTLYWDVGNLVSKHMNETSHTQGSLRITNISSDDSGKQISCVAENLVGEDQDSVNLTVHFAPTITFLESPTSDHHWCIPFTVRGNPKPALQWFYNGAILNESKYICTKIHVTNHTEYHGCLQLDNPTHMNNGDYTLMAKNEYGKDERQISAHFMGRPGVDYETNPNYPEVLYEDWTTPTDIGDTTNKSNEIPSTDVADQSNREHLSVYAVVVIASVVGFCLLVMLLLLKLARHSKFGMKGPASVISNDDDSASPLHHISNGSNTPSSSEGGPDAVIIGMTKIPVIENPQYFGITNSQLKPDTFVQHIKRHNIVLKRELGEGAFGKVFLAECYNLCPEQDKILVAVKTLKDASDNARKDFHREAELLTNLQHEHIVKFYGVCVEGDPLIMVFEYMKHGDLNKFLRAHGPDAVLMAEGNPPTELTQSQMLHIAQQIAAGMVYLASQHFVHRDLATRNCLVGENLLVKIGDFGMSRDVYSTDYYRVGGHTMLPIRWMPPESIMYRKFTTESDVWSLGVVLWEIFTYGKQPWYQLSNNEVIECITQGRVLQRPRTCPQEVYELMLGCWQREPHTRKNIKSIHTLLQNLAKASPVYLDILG
Procedure: as §1
Cells were plated in 12 well plates, at a density of 100,000 cells per well, with 6 h of serum deprivation carried out on the following day. To assess the effect of compounds on TrkB phosphorylation, 20-min treatments were applied, using either BDNF at 500 ng/mL (Peprotech 450-02) (positive control) or compounds at 1 μM.
Cell lysis for 10 min was carried out on ice using the Pierce IP Lysis Buffer by Thermo Scientific and a phospho-protease inhibitor cocktail by Millipore. After adding loading buffer (5 × Laemni), 25 μg from each protein sample were incubated for 5 min at 95°C and subjected to SDS-PAGE. Proteins were transferred to a nitrocellulose membrane at 350 mA for 2 h. Membrane blocking was performed using 5% bovine serum albumin (BSA) at room temperature for 1 h, before adding the primary antibodies to the blocking solution at 4°C overnight. HRP-conjugated secondary antibodies were used for the detection of chemiluminescence with ECL solution. Primary antibodies: Phospho-TrkB (Tyr816) Millipore # ABN1381, and Anti-TrkB Abcam #ab33655.
Mixed glial cultures were isolated from the cortex of C57B/6 pups at post-natal day 2 (P2). Cells were plated in a medium containing high-glucose DMEM, 200 U/mL penicillin, 200 μg/mL streptomycin, and 10% fetal bovine serum (FBS). When cells reach 100% confluency (7–8 days), the anti-mitotic agent Ara-C was added in the media at a final concentration of 10 μM, for 3 to 4 days to target the highly proliferative microglial cells. Ara-C was removed, and primary astrocytes (97% purity) were cultured at 5% CO2 and 37°C.
Cells were plated at 70–80% confluency. The next day, they were deprived of serum for 6 h and subsequently treated with 500 ng/mL BDNF or 1 μM of compounds for 20 min. Cells were then lysed in Pierce™ IP Lysis Buffer (87788, Thermo Fischer Scientific, Rockford, USA), containing proteases (539138, Calbiochem, Darmstadt, Germany), and phosphatase inhibitors (524629, Calbiochem, Darmstadt, Germany). Lysates were then suspended in an SDS loading buffer and subjected to Western blot against phosphorylated TrkB (1:1,000, ABN1381, Sigma-Aldrich, St. Louis, MO, USA) and total TrkB (1:1,000, 07-225-I, Sigma-Aldrich, St. Louis, MO, USA).

[4] = molecular target: T2, CYP2C9 (Homo sapiens, UniProt P11712); assay: Isozyme-specific CYP450 inhibition, CYP2C9; type: in vitro ADME; conditions: 1 μM, 60 min, recombinant human CYP450 (Baculosomes)
T2 construct: purchased Thermo Fisher Scientific; host or cells: Baculosomes
T2 sequence (P11712 whole entry): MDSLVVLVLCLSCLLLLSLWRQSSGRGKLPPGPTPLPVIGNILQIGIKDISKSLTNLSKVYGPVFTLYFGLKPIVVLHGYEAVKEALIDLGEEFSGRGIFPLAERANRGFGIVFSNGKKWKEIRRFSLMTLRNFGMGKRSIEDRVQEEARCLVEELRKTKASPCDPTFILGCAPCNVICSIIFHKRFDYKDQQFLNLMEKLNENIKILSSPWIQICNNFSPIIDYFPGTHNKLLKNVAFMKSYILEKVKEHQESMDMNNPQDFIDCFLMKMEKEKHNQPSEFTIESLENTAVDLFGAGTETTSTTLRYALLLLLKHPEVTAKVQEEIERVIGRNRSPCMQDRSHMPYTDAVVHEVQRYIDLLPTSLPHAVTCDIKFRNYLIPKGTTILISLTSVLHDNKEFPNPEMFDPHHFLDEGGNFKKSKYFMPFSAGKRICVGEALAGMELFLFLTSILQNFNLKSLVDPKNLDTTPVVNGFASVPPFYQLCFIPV
Procedure: Human cytochrome P450 (CYP450) isoenzymes were expressed in Baculosomes®, purchased from Thermo Fisher Scientific (Waltham, MA, USA). All reagents were handled and prepared according to the manufacturer's protocol. Test compounds were assessed at 1 μM for their effects on CYP1A2, CYP2A6, CYP2C9, CYP2C19, CYP2D6, and CYP3A4. Approximately 1 μM was selected based on our ADMET standard operating procedures and protocols also published previously (Rogdakis et al., [2022]; Yilmaz et al., [2022]). CYP450-enzymatic activity was determined based on the kinetic model for each CYP450 isoform (Cohen et al., [2003]; Veith et al., [2009]). Reactions took place in triplicates at 20°C. For this, NADP^+ (10 mM in 100 mM potassium phosphate, pH 8.0) was converted into NADPH by the regeneration system present (glucose-6-phosphate at 333 mM and glucose-6-phosphate-dehydrogenase at 30 U/mL in 100 mM potassium phosphate, pH 8.0). Following the addition of the fluorescent substrate, signal monitoring over time took place immediately (<2 min) at suitable excitation and emission wavelengths (Agilent BioTek Lionheart FX). CYP450 inhibition (%) was determined based on the reaction rates (fluorescence intensity changes per unit time). In total, n = 60 measurements […] were acquired (t = 60 min).
% Inhibition=(1-X/A)×100%
X is the rate observed in the presence of the test compound.
A is the rate observed in the presence of the negative (solvent, DMSO) control.

[5] = tested on: PC12 cells; assay: CellTox assay, survival of PC12 cells under serum deprivation; type: cell-based; conditions: compound 500 nM, 24 h, after 4 h serum starvation; NGF 100 ng/mL as control (Figure 9)
Procedure: (§2) PC12 cells were obtained from LGC Promochem and cultured under specified conditions. Cells were grown in DMEM medium (Thermo Fischer Scientific, cat# 10566016) containing 10% horse serum (Thermo Fischer Scientific, cat# 16050122), 5% fetal bovine serum (Thermo Fischer Scientific, cat# 10270106), 100 units/mL penicillin, and 0.1 mg/mL streptomycin (Thermo Fischer Scientific, cat# 15140122) at 5% CO2 and 37°C. Cells were used between passages 5 and 20.
CellTox assay (G8742, Promega, Leiden, Belgium) was used to assess the survival of PC12 cells under serum deprivation conditions. PC12 cells were plated in 96-well plates, starved from serum for 4 h, and subsequently treated with NGF (100 ng/mL) or compound (500 nM) for 24 h. CellTox assay reagents and Hoescht (1:10,000, H3570, Invitrogen, Massachusetts, USA) were then added to each well for 30 min, and then, cells were imaged with a Zeiss AXIO Vert A1 fluorescent microscope. CellTox positive cells were normalized to the total number of cells for each image.
Initially, we tested compounds ENT-A002, ENT-A007, ENT-A009, ENTA025, ENT-A026, ENT-A033, ENT-A034, ENT-A035, ENT-A036, ENT-A037, ENT-A046, ENT-A047, ENT-A055, and ENT-A056 for their ability to protect PC12 cells from serum deprivation-induced cell death as well as for their ability to activate TrkA downstream pro-survival signaling kinases Akt and Erk1/2 (Figures 9A–C). We opted to employ PC12 cells, which express receptors TrkA and p75 and have been routinely used for investigating NGF-TrkA signaling. PC12 cells were subjected to a period of nutrient deprivation (without fetal bovine serum and horse serum in their culture medium) for 4 h. Following this, NGF (100 ng/mL) or one of the compounds (500 nM or 1 μM) was administered and allowed to interact with the cells for 24 h. Following that, CellTox and Hoescht dyes were added and cells were imaged to assess cell death. Control cases involved cells cultured in full medium (serum), cells under starvation conditions (serum-free), and cells under starvation conditions treated with DMSO (SF+DMSO).

[6] = molecular target: T3, TrkA (Rattus norvegicus, UniProt P35739); assay: TrkA phosphorylation in PC12 cells (immunoprecipitation / Western blot); type: cell-based; conditions: compound 500 nM, 30 min, NGF 100 ng/mL as control
T3 construct: PC12 cells, which express receptors TrkA and p75; endogenous in cells; host or cells: PC12 cells
T3 sequence (P35739 33-799): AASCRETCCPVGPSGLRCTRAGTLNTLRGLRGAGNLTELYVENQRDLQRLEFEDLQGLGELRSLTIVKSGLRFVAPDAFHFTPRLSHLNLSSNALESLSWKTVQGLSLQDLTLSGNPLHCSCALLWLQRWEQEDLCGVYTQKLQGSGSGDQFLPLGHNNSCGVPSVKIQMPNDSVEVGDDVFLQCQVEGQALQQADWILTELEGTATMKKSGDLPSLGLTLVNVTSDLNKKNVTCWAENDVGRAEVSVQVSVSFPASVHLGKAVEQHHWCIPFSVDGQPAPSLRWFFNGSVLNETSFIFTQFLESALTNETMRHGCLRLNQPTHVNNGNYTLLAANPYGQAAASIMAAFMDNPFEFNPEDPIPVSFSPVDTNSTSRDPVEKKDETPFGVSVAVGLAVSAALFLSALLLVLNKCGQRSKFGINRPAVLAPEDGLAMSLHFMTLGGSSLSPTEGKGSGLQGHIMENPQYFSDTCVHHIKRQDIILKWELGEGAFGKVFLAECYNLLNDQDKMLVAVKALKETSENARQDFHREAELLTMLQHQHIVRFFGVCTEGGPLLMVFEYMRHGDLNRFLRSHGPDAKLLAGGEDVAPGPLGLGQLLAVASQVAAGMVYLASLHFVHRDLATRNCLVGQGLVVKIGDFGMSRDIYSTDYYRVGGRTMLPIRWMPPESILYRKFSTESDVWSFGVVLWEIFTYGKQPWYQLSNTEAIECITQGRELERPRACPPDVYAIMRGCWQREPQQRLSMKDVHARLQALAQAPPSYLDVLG
Procedure: as §2
For immunoprecipitation experiments, PC12 cells were used when they were at 70–80% confluent. Cells were starved from serum for 4 h and subsequently treated with 100 ng/mL NGF (Alomone Labs, cat# N-100) or 500 nM of each compound for 30 min. Cells were then lysed in Pierce™ IP Lysis Buffer (Thermo Fischer Scientific, cat# 87787) containing proteases (Sigma-Aldrich, cat# 539131) and phosphatase inhibitors (Millipore, cat# 524629). Lysates were then immunoprecipitated overnight at 4°C with TrkA antibody (1:100, Millipore, cat# 06-574) followed by 4 h incubation with protein G-plus agarose beads (Santa Cruz Biotechnology, cat# sc-2002). Beads were then collected, washed three times with lysis buffer, resuspended in SDS loading buffer, and subjected to Western blot against phosphorylated Tyrosine (1:1000, R&D systems, cat# BAM1676). […]

[7] = tested on: Erk1/2; assay: Erk1/2 phosphorylation in PC12 cells (Western blot); type: cell-based; conditions: compound 500 nM, 30 min, NGF 100 ng/mL as control
[8] = Metabolic stability in pooled human liver microsomes; type: in vitro ADME; conditions: 1 μM
Procedure: For metabolic stability assessment, pooled human liver microsomes were employed at 0.5 mg/mL. Incubation conditions were optimized to ensure linear metabolite formation with respect to protein concentration and reaction time. All test compounds were assessed at 1 μM based on our ADMET standard operating procedures and protocols, also published previously (1 μM was selected based on our ADMET standard operating procedures and protocols also published previously) (Rogdakis et al., [2022]; Yilmaz et al., [2022]). Approximately 1 mM of NADPH served as a cofactor. Reactions took place in triplicates at 37°C. Negative and positive controls (low vs. rapid clearance) were included for low vs. rapid clearance. After 60 min, reactions were terminated.
Parent structure loss is classified as very slow (<5%), slow (5–19%), moderate (20–50%), fast (50–80%), or very fast (>80%). Such categories have been defined according to set criteria, namely, high metabolism (t1/2 value of <30 min), moderate metabolism (30 min <t1/2 value of <60 min), and low metabolism (t1/2 value of >60 min) (EMA, [2012], [2013]; FDA, [2020]).

| SMILES | elimination constant (Kel) [1] [h⁻¹] | protection of NIH-3T3-TrkB cells from serum deprivation-induced cell death (CellTox) [2] | phosphorylation levels of the TrkB receptor [3] | inhibition for CYP2C9 [4] | protection of PC12 cells from serum deprivation-induced cell death (CellTox) [5] | TrkA phosphorylation [6] | Erk1/2 phosphorylation [7] | residual of time zero ([8]; pooled human liver microsomes 0.5 mg/mL, t = 60 min, NADPH) [%] | parent structure loss (depletion) class ([8]; pooled human liver microsomes, 60 min) |
| --- | --- | --- | --- | --- | --- | --- | --- | --- | --- |
| CC12CCC(O)CC1=CCC1C2CCC2(C)C1CCC21OC1CO (stereo not shown) [BNN27] | 0.465 | – | – | – | – | – | – | – | – |
| CC12CCC(O)CC1=CCC1C2CCC2(C)C1CCC21CC=C(C=CC#N)CO1 [ENT-A009, (E)-(3S,17R)-3-hydroxy-3′,6′-dihydrospiro[5-androstene-17,2′-pyran]-5′-acrylonitrile] | – | significantly reduce cell death levels compared to the serum-free control, comparable to the BDNF action | successfully increased phosphorylation levels of the TrkB receptor compared to the untreated control | moderate-to-strong inhibition | – | – | – | – | – |
| CC12CCC(O)CC1=CCC1C2CCC2(C)C1CCC21CC=C(CCl)CO1 [ENT-A025, (3S,17R)-5′-(chloromethyl)-3′,6′-dihydrospiro[5-androstene-17,2′-pyran]-3-ol] | – | cannot protect NIH3T3-TrkB cells from serum deprivation | – | – | protect PC12 cells against serum deprivation-induced cell death | strongly induce TrkA and Erk1/2 phosphorylation, comparable to NGF action | strongly induce TrkA and Erk1/2 phosphorylation, comparable to NGF action | 92 | slow (slow (5–19%)) |
